Here are results for 73 molecules from patent US8017629B2, “Compounds and uses thereof in modulating amyloid β” (Neurogenetic Pharmaceuticals, Inc., priority 2003, dated 2011).

SMILES strings stand for the structures.

This assay has as its system Aβ42 levels in the extracellular medium. In words: FRET (HTRF) assay, Aβ42 level of the extracellular medium of SH-SY5Y-APP cells. Format: cell-based. The following applies: Homo sapiens, concentration at which reduction of Aβ42 level was half of the maximum reduction, read-out: Ab42 Potency. On the procedure:
Compounds were evaluated for activity in modulating Aβ42 and Aβ40 levels in the extracellular medium using a homogeneous time-resolved fluorescence (HTRF) assay as follows.
For the HTRF assay, either 5 or 10 μl of supernatant from treated cells was added to 10 or 15 μl of labeled antibody pairs, for a total volume of 20 μl, and incubated for 20-24 hours at 4° C. The labeled antibody pairs were either 8000 pg B436-XL665 and 400 pg B113 Europium, for assessing Aβ40 levels, or 8000 pg B436-XL665 and 400 pg A387 Europium, for assessing Aβ42 levels, diluted in 50 mM NaPO4, 0.2% BSA, 0.5M KF, pH 7. The fluorescence was read on a BMG Rubystar at 620 nm and 665 nm.
Background: TR-FRET usually uses a lanthanide donor and a delayed reading to cut background.
As to `Cc1ccc(C(C)C)cc1Nc1nc(-c2ccc(-n3ccnc3)cc2)cs1` [Compound 324], the EC50 was < 200 nM.
Turning to `NC(=O)c1ncn(-c2ccc(-c3csc(Nc4ccc(N5CCOCC5)c(Cl)c4)n3)cc2)n1` [Compound 233], the EC50 fell in the range of 1100 to 5000 nM.
Under `CNCCN(C)c1ccc(Nc2nc(-c3ccc(-n4ccnc4)cc3)cs2)c(C(F)(F)F)c1` [Compound 224] stands 1100 to 5000 nM; under `CN1CCN(c2ccc(-c3csc(Nc4ccc(I)cc4)n3)cc2)CC1` [Compound 126], 1100 to 5000 nM; under `COc1cc(Nc2nc(-c3ccc(OC(F)F)cc3)cs2)cc(OC)c1OC` [Compound 109], 10100 to 30000 nM.
As to `CCN(CC)c1ccc(C)c(Nc2nc(-c3ccc(-n4cnc(C)c4)c(F)c3)cs2)c1` [Compound 309], the EC50 is < 200 nM.
Under `Cc1ccc(Nc2nc(-c3ccc(-n4ccnc4)cc3)co2)c(C)c1` [Compound 345] stands 5100 to 10000 nM.
Under `Cc1cn(-c2ccc(-c3csc(Nc4cc(N(C)CC5CC5)ccc4C)n3)cc2)cn1` [Compound 305] stands < 200 nM; under `CCN(CC)c1ccc(-c2csc(Nc3ccc(O)cc3)n2)cc1` [Compound 123], 10100 to 30000 nM; under `COc1cccc(Nc2nc(-c3ccc(N=Nc4ccccc4)cc3)cs2)c1` [Compound 131], 10100 to 30000 nM.
Under `Cc1cn(-c2ccc(-c3csc(Nc4cc(C)c(OCC5CC5)cc4C)n3)cc2)cn1` [Compound 280] stands < 200 nM; under `COc1cccc(CNc2nc(-c3ccc(N4CCN(C)CC4)cc3)cs2)c1` [Compound 135], 1100 to 5000 nM.
Take `FC(F)(F)c1cc(NCCN2CCCC2)ccc1Nc1nc(-c2ccc(-n3ccnc3)cc2)cs1` [Compound 222]: the EC50 fell in the range of 1100 to 5000 nM.
`Cc1cc(NCc2ccccn2)ccc1Nc1nc(-c2ccc(-n3ccnc3)cc2)cs1` [Compound 208]: the EC50 lay within 5100 to 10000 nM.
Take `COc1cc(C)c(Nc2nc(-c3ccc(N4CCN(C)CC4)cc3)cs2)cc1C(C)C` [Compound 321]: the EC50 is 200 to 1000 nM.
Under `COc1cc(C)c(Nc2nc(-c3ccc(-n4cnc(C)c4)cc3)cs2)cc1C(C)C` [Compound 295] stands < 200 nM; under `CCN(CC)c1ccc(C)c(Nc2nc(-c3ccc(-n4cc(C)cn4)cc3)cs2)c1` [Compound 307], 1100 to 5000 nM.
Turning to `Cc1ccc(-n2cccc2)cc1Nc1nc(-c2ccc(-n3cnc(Br)c3)cc2)cs1` [Compound 279], the EC50 fell in the range of 200 to 1000 nM.
`CN1CCN(c2ccc(-c3csc(Nc4ccc5[nH]ncc5c4)n3)cc2)CC1` [Compound 141]: the EC50 lay in the range of 1100 to 5000 nM.
The value for `CCN(CC)c1ccc(N(CC)c2nc(-c3ccc(-n4cnc(C)c4)cc3)cs2)c(C)c1` [Compound 273] was 200 to 1000 nM; that for `c1cn(-c2ccc(-c3csc(Nc4ccc5[nH]ccc5c4)n3)cc2)cn1` [Compound 143] was 1100 to 5000 nM.
The value for `CCc1cc(N2CCOCC2)ccc1Nc1nc(-c2ccc(-n3ccnc3)cc2)cs1` [Compound 239] was 1100 to 5000 nM; that for `CSc1cccc(Nc2nc(-c3ccc(N4CCN(C)CC4)cc3)cs2)c1` [Compound 145] was 1100 to 5000 nM.
The value for `Cc1cn(-c2ccc(-c3csc(Nc4cc(N(C)C)ccc4C)n3)cn2)cn1` [Compound 282] was < 200 nM; that for `COc1ccc(Nc2nc(-c3ccc4c(c3)OCCO4)cs2)cc1OC` [Compound 110] was 5100 to 10000 nM; that for `CCN(CC1CC1)c1cc(Nc2nc(-c3ccc(-n4cnc(C)c4)cc3)cs2)c(C)cc1C` [Compound 350] was < 200 nM.
With `Cc1cc(C)c(Nc2nc(-c3ccc(-n4nccn4)cc3)cs2)cc1C` [Compound 244], the EC50 fell in the range of 1100 to 5000 nM.
For `CCN(CC)c1ccc(Nc2nc(-c3ccc(-n4cnc(C)c4)cc3C(F)(F)F)cs2)c(C)c1` [Compound 227], the EC50 lay in the range of 5100 to 10000 nM.
Under `CCN(CC)c1cc(C)c(Nc2nc(-c3ccc(-n4ccnc4)cc3)cs2)cc1C` [Compound 292] stands < 200 nM; under `Cc1ccc(N2CCN(C)CC2)cc1Nc1nc(-c2ccc(-n3ccnc3)cc2)cs1` [Compound 255], 200 to 1000 nM; under `CCOc1cc(C)c(Nc2nc(-c3ccc(-n4cnc(C)c4)nc3)cs2)cc1C` [Compound 287], < 200 nM.
Under `COc1ccc(Nc2nc(-c3ccc(N4CCN(C)CC4)cc3)cs2)cc1` [Compound 137] stands 1100 to 5000 nM; under `CN1CCC(CNc2ccc(Nc3nc(-c4ccc(-n5ccnc5)cc4)cs3)c(C(F)(F)F)c2)CC1` [Compound 216], 5100 to 10000 nM.
Under `CSc1cccc(Nc2nc(-c3ccc4c(c3)OCCO4)cs2)c1` [Compound 167] stands 5100 to 10000 nM; under `COc1ccc(-c2coc(Nc3ccccc3)n2)cc1` [Compound 338], 10100 to 30000 nM.
`CCN(CC)c1cc(C)c(Nc2nc(-c3ccc(-n4cnc(C)c4)cc3)cs2)cc1C` [Compound 285]: the EC50 was < 200 nM.
The value for `CSc1cccc(Nc2nc(-c3ccc(N4CCCC4)cc3)cs2)c1` [Compound 166] was 200 to 1000 nM; that for `Cc1cc(NCCN(C)C)ccc1Nc1nc(-c2ccc(-n3ccnc3)cc2)cs1` [Compound 202] was 1100 to 5000 nM; that for `Cc1cc(C)cc(Nc2nc(-c3ccc(-n4cnc(-c5ccccc5)c4)cc3)cs2)c1` [Compound 178] was 10100 to 30000 nM.
Under `Cc1cc(C)c(Nc2nc(-c3ccc(-n4cnc(C)c4)cc3)cs2)c(C)c1` [Compound 250] stands 200 to 1000 nM.
Under `CCN(CC)c1ccc(Nc2nc(-c3ccc(N4CCN(C)CC4)nc3)cs2)c(C)c1` [Compound 329] stands 10100 to 30000 nM.
`Oc1ccc(Nc2nc(-c3ccc4c(c3)OCO4)cs2)cc1` [Compound 118]: the EC50 was in the range of 5100 to 10000 nM.
`COc1ccc(-c2csc(Nc3ccc4[nH]cnc4c3)n2)c(OC)c1` [Compound 160]: the EC50 lay in the range of 200 to 1000 nM.
For the molecule `CCN1CCN(c2ccc(-c3csc(Nc4ccc5c(c4)OCO5)n3)cc2)CC1` [Compound 162], the EC50 was in the range of 1100 to 5000 nM.
Under `CC(C)N(c1ccccc1)c1ccc(Nc2nc(-c3ccc(-n4ccnc4)cc3)cs2)cc1` [Compound 146] stands 1100 to 5000 nM; under `COc1ccc(Nc2nc(-c3ccc(Cl)cc3)co2)cc1` [Compound 339], 1100 to 5000 nM; under `CCN(CC)c1ccc(F)c(Nc2nc(-c3ccc(-n4cnc(C)c4)nc3)cs2)c1` [Compound 314], < 200 nM.
Under `COc1cccc(Nc2nc(-c3ccc(-n4ccnc4)cc3)cs2)c1` [Compound 181] stands 10100 to 30000 nM; under `CN(C)S(=O)(=O)c1ccc(-c2csc(Nc3ccc(Cl)cc3)n2)cc1` [Compound 149], 5100 to 10000 nM.
Under `Clc1ccc(Nc2nc(-c3ccc(-n4cnc(Cl)c4Cl)cc3)cs2)cc1Cl` [Compound 186] stands 1100 to 5000 nM; under `Cc1cn(-c2ccc(-c3csc(Nc4cc(C(C)C)ccc4C)n3)cc2)cn1` [Compound 326], < 200 nM; under `CCCN(C)c1ccc(C)c(Nc2nc(-c3ccc(-n4cnc(C)c4)cc3)cs2)c1` [Compound 348], < 200 nM.
As to `Cc1cn(-c2ccc(-c3csc(Nc4cc(N5CCSCC5)ccc4C)n3)cn2)cn1` [Compound 281], the EC50 was < 200 nM.
As for `COc1cc(Nc2nc(-c3ccc(N4CCN(C)CC4)cc3)cs2)cc(OC)c1OC` [Compound 116], the EC50 fell in the range of 1100 to 5000 nM.
Under `COc1cc(C)c(Nc2nc(-c3ccc(-n4cc(C)cn4)cc3)cs2)cc1C(C)C` [Compound 308] stands 200 to 1000 nM; under `Cc1cn(-c2ccc(-c3csc(Nc4cc5cn[nH]c5cc4C)n3)cn2)cn1` [Compound 331], 5100 to 10000 nM; under `Cc1cn(-c2ccc(-c3nc(Nc4cc(C)c(C)cc4C)sc3C)cc2)cn1` [Compound 242], 200 to 1000 nM.
Take `CCN(CC)c1cc(Nc2nc(-c3ccc(-n4ccnc4)cc3)cs2)c(C)cc1C` [Compound 291]: the EC50 was < 200 nM.
For the molecule `COc1ccc(-c2csc(Nc3ccc(I)cc3)n2)c(OC)c1` [Compound 125], the EC50 lay within 1100 to 5000 nM.
Under `COc1ccc(OC)c(Nc2nc(-c3ccc(-n4cnc(C)c4)cc3)cs2)c1` [Compound 264] stands 200 to 1000 nM; under `Cc1cn(-c2ccc(-c3csc(Nc4c(Cl)cc(Cl)cc4Cl)n3)cc2)cn1` [Compound 238], 1100 to 5000 nM.
The value for `CCN(CCOC)c1ccc(Nc2nc(-c3ccc(-n4cnc(C)c4)nc3)cs2)c(C)c1` [Compound 261] was 200 to 1000 nM.
Under `CN1CCN(c2ccc(-c3csc(Nc4cccc(Cl)c4)n3)cc2)CC1` [Compound 151] stands 200 to 1000 nM; under `CCN(CC)c1ccc(C)c(Nc2nc(-c3ccc(-n4cnc(C)c4)cc3)cs2)c1` [Compound 268], < 200 nM; under `COc1cc(C)c(Nc2nc(-c3ccc(-n4cnc(C)c4)c(F)c3)cs2)cc1C(C)C` [Compound 310], < 200 nM.
In the case of `CCN(CC)c1ccc(F)c(Nc2nc(-c3ccc(-n4cnc(C)c4)cc3)cs2)c1` [Compound 313], the EC50 was < 200 nM.
Under `CSc1cccc(Nc2nc(-c3ccc(-c4ccccc4)cc3)cs2)c1` [Compound 168] stands 1100 to 5000 nM.
Take `CCN(CC)c1ccc(Nc2nc(-c3ccc(-n4cc(C)nc4C)cc3)cs2)c(C)c1` [Compound 249]: the EC50 lay within 1100 to 5000 nM.
Under `Cc1ccc(Nc2nc(-c3ccc(C#N)cc3)cs2)cc1Cl` [Compound 193] stands 10100 to 30000 nM.
`Brc1cccc(Nc2nc(-c3ccc(-n4ccnc4)cc3)cs2)c1` [Compound 212]: the EC50 lay within 1100 to 5000 nM.
As to `CCN(CC)c1ccc(Nc2nc(-c3ccc(-n4ccnc4C)cc3)cs2)c(C)c1` [Compound 189], the EC50 was 1100 to 5000 nM.
Turning to `Cc1ccc(CO)cc1Nc1nc(-c2ccc(-n3ccnc3)cc2)cs1` [Compound 298], the EC50 was 200 to 1000 nM.
The value for `CCOc1ccc(Nc2nc(-c3ccc(N4CCN(C)CC4)cc3)cs2)cc1` [Compound 136] was 10100 to 30000 nM.
